# Test results reported in US20040077655A1, “Piperazine derivatives for treatment of bacterial infections” (priority 2000, published 2004).
# Assay: MIC of test compounds against various organisms
# Type: cell-based, S. aureus, S. pneumoniae, H. influenzae, E. faecalis
# Description: The MIC (μg/ml) of test compounds against various organisms was determined: S. aureus Oxford, S. aureus WCUH29, S. pneumoniae 1629, S. pneumoniae N1387, S. pneumoniae ERY 2, H. influenzae Q1, E. faecalis 7.
row,SMILES,MIC [µg/mL]
1,"COc1ccc2nccc(NC(=O)N3CCN(CC(=O)c4cnc5ccccc5n4)CC3)c2n1 [Example 10, 4-(2-Oxo-2-quinoxalin-2-yl-ethyl)-piperazine-1-carboxylic acid (6-methoxy-[1,5]naphthyridin-4-yl)-amide.]",≤ 2
2,"COc1ccc2nccc(NC(=O)N3CCN(CC(=O)c4ccc5c(c4)NC(=O)CO5)CC3)c2n1 [Example 12, 4-[2-Oxo-2-(3-oxo-3,4-dihydro-2H-benzo[1,4]oxazin-6-yl)-ethyl]piperazine-1-carboxylic acid (6-methoxy-[1,5]naphthyridin-4-yl)-amide.]",≤ 0.25
